Reference: patent US20140274688A1, “MOLECULES HAVING CERTAIN PESTICIDAL UTILITIES, AND INTERMEDIATES, COMPOSITIONS, AND PROCESSES RELATED THERETO” (DOW AGROSCIENCES LLC, priority 2013, published 2014)

Legend:
[1] = tested on: Beet Armyworm (Spodoptera exigua) ("BAW"); assay: Bioassay on Beet Armyworm (BAW), 128-well diet tray assay, percent mortality; assay type: in vivo; conditions: Spodoptera exigua, read-out: BAW
In short: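 Larvae in covered diet trays held at 25 °C, 14:10 light-dark, for five to seven days. Percent mortality scored per well and averaged over eight wells per treatment.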

[2] = tested on: Cabbage Looper (Trichoplusia ni) ("CL"); assay: Bioassay on Cabbage Looper (CL), 128-well diet tray assay, percent mortality; assay type: in vivo; conditions: Trichoplusia ni, read-out: CL
In short: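 Larvae held in covered diet trays at 25 °C, 14:10 light-dark, for five to seven days. Percent mortality scored per well and averaged over eight wells.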

SMILES | pest or weed control at 50 µg/cm2 [1] [%] | pest or weed control at 50 µg/cm2 [2] [%]
COc1ccc(N2C(=O)CS/C2=N\C(=O)NCCCc2cccc(-c3ncn(-c4ccc(OC(F)(F)F)cc4)n3)c2)c(C)c1 [P131, (Z)-1-(3-(4-methoxy-2-methylphenyl)-4-oxothiazolidin-2-ylidene)-3-(3-(3-(1-(4-(trifluoromethoxy)phenyl)-1H-1,2,4-triazol-3-yl)phenyl)propyl)urea] | 50 to 100 | 50 to 100
CCc1ccccc1N1C(=O)CS/C1=N\C(=O)NCCCCc1ccc(-c2ncn(-c3ccc(OC(F)(F)F)cc3)n2)cc1 [P145, (Z)-1-(3-(2-ethylphenyl)-4-oxothiazolidin-2-ylidene)-3-(4-(4-(1-(4-(trifluoromethoxy)phenyl)-1H-1,2,4-triazol-3-yl)phenyl)butyl)urea] | 50 to 100 | 50 to 100
CC(C)c1ccccc1N1C(=O)CS/C1=N\C(=O)NCCCCc1ccc(-c2ncn(-c3ccc(OC(F)(F)F)cc3)n2)cc1 [P146, (Z)-1-(3-(2-isopropylphenyl)-4-oxothiazolidin-2-ylidene)-3-(4-(4-(1-(4-(trifluoromethoxy)phenyl)-1H-1,2,4-triazol-3-yl)phenyl)butyl)urea] | 50 to 100 | 50 to 100
Cc1ccc(C(C)C)c(N2C(=O)CS/C2=N\C(=O)NCCCCc2ccc(-c3ncn(-c4ccc(OC(F)(F)F)cc4)n3)cc2)c1 [P150, (Z)-1-(3-(2-isopropyl-5-methylphenyl)-4-oxothiazolidin-2-ylidene)-3-(4-(4-(1-(4-(trifluoromethoxy)phenyl)-1H-1,2,4-triazol-3-yl)phenyl)butyl)urea] | 50 to 100 | 50 to 100
CCCc1ccc(C)cc1N1C(=O)CS/C1=N\C(=O)NCCCCc1ccc(-c2ncn(-c3ccc(OC(F)(F)F)cc3)n2)cc1 [P151, (Z)-1-(3-(5-methyl-2-propylphenyl)-4-oxothiazolidin-2-ylidene)-3-(4-(4-(1-(4-(trifluoromethoxy)phenyl)-1H-1,2,4-triazol-3-yl)phenyl)butyl)urea] | 50 to 100 | 50 to 100
CC(C)c1cc(F)ccc1N1C(=O)CS/C1=N\C(=O)NCCCCc1ccc(-c2ncn(-c3ccc(OC(F)(F)F)cc3)n2)cc1 [P155, (Z)-1-(3-(4-fluoro-2-isopropylphenyl)-4-oxothiazolidin-2-ylidene)-3-(4-(4-(1-(4-(trifluoromethoxy)phenyl)-1H-1,2,4-triazol-3-yl)phenyl)butyl)urea] | 50 to 100 | 50 to 100
COc1ccc(C(C)C)c(N2C(=O)CS/C2=N\C(=O)NCCCCc2ccc(-c3ncn(-c4ccc(OC(F)(F)F)cc4)n3)cc2)c1 [P156, (Z)-1-(3-(2-isopropyl-5-methoxyphenyl)-4-oxothiazolidin-2-ylidene)-3-(4-(4-(1-(4-(trifluoromethoxy)phenyl)-1H-1,2,4-triazol-3-yl)phenyl)butyl)urea] | 50 to 100 | 50 to 100
CCc1ccccc1N1C(=O)CS/C1=N\C(=O)NCCCCc1cccc(-c2ncn(-c3ccc(OC(F)(F)F)cc3)n2)c1 [P171, (Z)-1-(3-(2-ethylphenyl)-4-oxothiazolidin-2-ylidene)-3-(4-(3-(1-(4-(trifluoromethoxy)phenyl)-1H-1,2,4-triazol-3-yl)phenyl)butyl)urea] | 50 to 100 | 50 to 100
CC(C)c1ccccc1N1C(=O)CS/C1=N\C(=O)NCCCCc1cccc(-c2ncn(-c3ccc(OC(F)(F)F)cc3)n2)c1 [P172, (Z)-1-(3-(2-isopropylphenyl)-4-oxothiazolidin-2-ylidene)-3-(4-(3-(1-(4-(trifluoromethoxy)phenyl)-1H-1,2,4-triazol-3-yl)phenyl)butyl)urea] | 50 to 100 | 50 to 100
